Test results from ChEMBL document CHEMBL3351924, “Detailed analysis and follow-up studies of a high-throughput screening for indoleamine 2,3-dioxygenase 1 (IDO1) inhibitors” (Eur J Med Chem, 2014).
≈ marks a conversion by molar mass, not a printed value.

How the values were obtained:
[1] = target: T1, Indoleamine 2,3-dioxygenase 1 (Homo sapiens, UniProt P14902); assay: Inhibition of IDO1 (unknown origin) using L-tryptophan substrate incubated for 60 mins in presence of 0.01% Triton-X by HPLC; conditions: read-out: IC50
[2] = target: Indoleamine 2,3-dioxygenase 1 (Mus musculus, UniProt P28776); assay: Inhibition of mouse IDO1 expressed in mouse P815B cells using L-tryptophan substrate incubated for 18 hrs by HPLC based cellular assay; format: cell-based
[3] = target: T1, Indoleamine 2,3-dioxygenase 1; assay: Inhibition of IDO1 (unknown origin) using L-tryptophan substrate incubated for 60 mins in presence of 5 mM GSH by HPLC
[4] = Cytotoxicity against mouse P815B cells after 24 hrs by MTS/PMS assay; conditions: P815B cells
[5] = Solubility of the compound in pH 6.5 phosphate buffer containing 5% DMSO; conditions: phosphate buffer containing 5% DMSO
[6] = target: Tryptophan 2,3-dioxygenase (Mus musculus, UniProt P48776); assay: Inhibition of mouse TDO expressed in mouse P815B cells using L-tryptophan substrate incubated for 24 hrs by HPLC based cellular assay; format: cell-based
[7] = target: T1, Indoleamine 2,3-dioxygenase 1; assay: Inhibition of IDO1 (unknown origin) using L-tryptophan substrate incubated for 60 mins by HPLC; conditions: read-out: IC50

T1 sequence (P14902 whole entry): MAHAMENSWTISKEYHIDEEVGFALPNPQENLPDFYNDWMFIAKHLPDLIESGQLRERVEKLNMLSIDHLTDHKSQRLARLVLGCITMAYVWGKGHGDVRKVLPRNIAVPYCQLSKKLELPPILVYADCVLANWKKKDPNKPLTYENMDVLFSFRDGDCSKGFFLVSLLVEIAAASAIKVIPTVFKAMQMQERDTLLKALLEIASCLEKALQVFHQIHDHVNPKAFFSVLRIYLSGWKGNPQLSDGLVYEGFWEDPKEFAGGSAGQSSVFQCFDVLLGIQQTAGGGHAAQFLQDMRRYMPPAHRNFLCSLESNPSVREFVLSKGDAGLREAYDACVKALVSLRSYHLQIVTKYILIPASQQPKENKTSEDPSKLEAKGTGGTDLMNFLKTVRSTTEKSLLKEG
Indoleamine 2,3-dioxygenase 1 (Mus musculus, UniProt P28776), sequence (P28776 whole entry): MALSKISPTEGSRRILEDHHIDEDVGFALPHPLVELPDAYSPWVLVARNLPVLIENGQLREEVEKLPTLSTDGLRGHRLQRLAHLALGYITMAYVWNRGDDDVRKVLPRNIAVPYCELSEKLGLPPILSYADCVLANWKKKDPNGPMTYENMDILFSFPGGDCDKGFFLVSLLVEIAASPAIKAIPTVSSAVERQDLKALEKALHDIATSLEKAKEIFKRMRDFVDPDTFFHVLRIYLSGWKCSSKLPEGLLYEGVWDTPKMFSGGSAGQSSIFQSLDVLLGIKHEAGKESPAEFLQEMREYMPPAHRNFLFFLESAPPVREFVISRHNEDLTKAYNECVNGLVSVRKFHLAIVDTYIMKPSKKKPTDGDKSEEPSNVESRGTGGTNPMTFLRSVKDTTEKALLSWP
Tryptophan 2,3-dioxygenase, sequence (P48776 whole entry): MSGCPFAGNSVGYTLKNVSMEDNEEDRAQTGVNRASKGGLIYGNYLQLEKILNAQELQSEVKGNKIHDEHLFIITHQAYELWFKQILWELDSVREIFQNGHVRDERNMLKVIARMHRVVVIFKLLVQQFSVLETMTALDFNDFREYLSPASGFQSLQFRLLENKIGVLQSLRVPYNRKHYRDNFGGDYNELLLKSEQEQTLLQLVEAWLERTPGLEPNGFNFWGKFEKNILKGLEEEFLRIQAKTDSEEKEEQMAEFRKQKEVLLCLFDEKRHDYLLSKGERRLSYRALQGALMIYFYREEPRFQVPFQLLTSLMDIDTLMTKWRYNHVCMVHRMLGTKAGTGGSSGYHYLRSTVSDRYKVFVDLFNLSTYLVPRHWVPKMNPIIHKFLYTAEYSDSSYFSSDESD

SMILES	IC50 [1]	IC50 ([2]; p815b)	IC50 [3]	CC50 at 24 h [4]	solubility [5]	IC50 ([6]; p815b)	IC50 [7]	IC50 ([2]; read-out: IC50)	IC50 ([6]; read-out: IC50)
CCOC(=O)c1ccc(-n2sccc2=O)cc1	11 µM	Not Active	100 µM	10 µM	500 µM (≈ 125 µg/mL)	Not Active	15 µM	–	–
Cc1ccc(-n2nnnc2C/C=N/Nc2ccc(Cl)cc2)cc1	53 µM	–	31 µM	10 µM	12.5 µM (≈ 4.08 µg/mL)	–	54 µM	0.34 µM	4.2 µM
